US10829483B2, “Thiophene, manufacturing method thereof, and pharmaceutical application of same” (CSTONE PHARMACEUTICAL (SUZHOU) CO., LTD., priority 2016, dated 2020)

Molecular target: URAT-1 (uric acid transporter) (Homo sapiens (Human), UniProt Q96S37)
Experiment: Inhibition of 14C uric acid transport by HEK293 cell line stably transfected with the URAT-1 gene
Assay type: cell-based
Details: URAT-1 (HEK293) cells; 14C-labelled uric acid 50 um, 10 min at 37° C.; read-out: IC50 (inhibition against URAT-1)
Procedure: Determination of the IC50 value of the inhibitory activity of the compound against uric acid reabsorption by the HEK293 cell line stably transfected with the URAT-1 (uric acid transporter) gene.
URAT-1 (HEK293) cell line: the HEK293 cell line stably transfected with the URAT-1 gene
cell culture medium: DMEM culture medium added 10% fetal bovine serum (FBS), 1% sodium pyruvate and […] G418.
Uric acid solution labeled by ^14C.
1) the supernatant of cell culture was aspirated, and cells was washed with 10 mL PBS.
2) preheated trypsin was added into the cell culture flask, and the cell culture flask was rotated to make trypsin covering onto the bottom of cell culture flask equably.
3) the cells were suspended with 10-15 mL of culture medium in each T150 flask, took 0.1 mL of cell suspension and diluted it with two volumes of trypan blue solution to count the cells.
4) cells were diluted to 2.5×10^5/mL with the culture medium, and the diluted cells were added into a rat tail collagen-coated 24-well plate (800 uL/well, 2×10^5 cells/well). The plate was incubated overnight at 37° C. in a 5% CO2 incubator.
1) cells were seeded into 24-well plate, and supernatant was discarded after 16-18 h. The cells were washed twice using 600 ul HBSS buffer.
2) HBSS buffer was removed and 180 ul of HBSS buffer was added into each well again.
1) compounds were dissolved into 100% DMSO, and diluted into 6 concentration points by 3-fold dilution, or into 2 concentration points by 10-fold dilution, and the highest starting concentration was 50 mM.
2) 5 ul DMSO solution in step 1) was transferred into 120 ul of HBSS buffer to make a 25-fold dilution.
3) 10 ul diluted solution in step 2) was added into 24-well plate, and the plate was incubated for 15 min at 37° C. in a 5% CO2 incubator. The final concentration of DMSO is 0.2%. The control well contained 0.2% DMSO without compound.
^14C-labelled uric acid was diluted and added into plate, and the final concentration is 50 um. The plate was incubated for 10 min at 37° C. in a 5% CO2 incubator. After supernatant was discarded, cells were washed with HBSS buffer twice. Cells was lysed with 0.1M NaOH. And then cell lysis solution was collected into liquid scintillation tube and added with liquid scintillation solution. The signal was read by liquid scintillation counter Tri-Carb. e) data analysis URAT-1 inhibition by the treatment of the compounds was analyzed by calculating the percentage of inhibition. Non-linear fitting analysis of percent inhibition (inh %) data using GraphPad Prism software to generate the IC50 value.

Chain of URAT-1 (uric acid transporter) (Q96S37 whole entry): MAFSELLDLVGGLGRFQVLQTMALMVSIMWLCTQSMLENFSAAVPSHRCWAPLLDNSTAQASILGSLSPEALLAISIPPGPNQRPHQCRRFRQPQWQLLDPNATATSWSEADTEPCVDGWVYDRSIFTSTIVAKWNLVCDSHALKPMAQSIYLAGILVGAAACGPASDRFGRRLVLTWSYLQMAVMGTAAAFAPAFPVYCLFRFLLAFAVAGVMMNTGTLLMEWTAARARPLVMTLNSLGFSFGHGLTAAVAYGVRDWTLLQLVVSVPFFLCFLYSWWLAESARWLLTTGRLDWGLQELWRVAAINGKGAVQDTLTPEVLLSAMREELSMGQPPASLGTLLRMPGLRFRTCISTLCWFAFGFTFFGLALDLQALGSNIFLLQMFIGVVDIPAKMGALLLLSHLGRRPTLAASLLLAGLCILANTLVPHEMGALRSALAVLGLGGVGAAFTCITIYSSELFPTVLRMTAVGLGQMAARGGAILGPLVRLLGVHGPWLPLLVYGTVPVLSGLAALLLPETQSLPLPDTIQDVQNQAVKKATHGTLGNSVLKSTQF

IC50 | SMILES
> 20 µM | COC(=O)CSc1nncn1-c1cc(Br)c(-c2ccccc2)s1 [WX073]
2 to 20 µM | CC(C)(Sc1nnc(Br)n1-c1sc(C2CC2)c2c1CCC2)C(=O)NO [WX102]
< 2 µM | Cc1cc(-n2c(Br)nnc2SC2(C(=O)O)CCCC2)sc1C1CC1 [WX092]
< 2 µM | CC(C)(Sc1nnc(Br)n1-c1cc(Cl)c(C2CC2)s1)C(=O)O [WX067]
> 20 µM | O=C(O)CSc1nncn1-c1sc(-c2cccc(Cl)c2)c2c1CCC2 [WX052]
> 20 µM | Cc1cc(-n2c(Br)nnc2SCC(=O)O)sc1-c1ccc(C(F)(F)F)cc1 [WX084]
2 to 20 µM | COC(=O)C(C)Sc1nncn1-c1cc(Br)c(-c2ccccc2)s1 (centres unmarked) [WX075]
< 2 µM | O=C(O)CSc1nnc(Br)n1-c1sc(-c2cc(F)cc(F)c2)c2c1CCCC2 [WX009]
2 to 20 µM | Cc1cc(-n2c(Br)nnc2SC(C)(C)C(=O)O)sc1-c1ccccc1 [WX081]
> 20 µM | O=C(O)CSc1nnc(Br)n1-c1sc(-c2cccc(Cl)c2)c2c1CCC2 [WX045]
< 2 µM | CC1(C)CCc2c(-n3c(Br)nnc3SC(C)(C)C(=O)O)sc(C3CC3)c2C1 [WX035]
< 2 µM | CC(C)(Sc1nnc(Br)n1-c1sc(-c2ccc(Cl)c(Cl)c2)c2c1CCCC2)C(=O)O [WX011]
> 20 µM | Cc1ccc(-c2sc(-n3cnnc3SCC(=O)O)c3c2CCC3)cc1 [WX050]
> 20 µM | O=C(O)CSc1nncn1-c1sc(C2CC2)c2c1CCCC2 [WX002]
> 20 µM | O=C(O)CSc1nnc(Br)n1-c1sc(-c2ccc(Cl)c(Cl)c2)c2c1CCC2 [WX041]
2 to 20 µM | Cc1cc(-n2c(Br)nnc2SC(C)C(=O)O)sc1-c1ccccc1 (centres unmarked) [WX080]
> 20 µM | CC(C)(Sc1nnc(Br)n1-c1sc(-c2ccncn2)c2c1CCCC2)C(=O)O [WX025]
2 to 20 µM | CN(C)c1ccc(-c2sc(-n3cnnc3SCC(=O)O)c3c2CCC3)cc1Br [WX057]
> 20 µM | CC(C)c1nnc(SCC(=O)O)n1-c1sc(C2CC2)c2c1CCC2 [WX101]
> 20 µM | O=C(O)CSc1nnc(Br)n1-c1sc(C2CC2)c2c1CCC2 [WX058]
> 20 µM | CC(C)(C)c1ccc(-c2sc(-n3c(Br)nnc3SCC(=O)O)c3c2CCC3)cc1 [WX046]
2 to 20 µM | COc1ccc(-c2sc(-n3c(Br)nnc3SCC(=O)O)c3c2CCCC3)cc1 [WX017]
2 to 20 µM | Cc1cc(-n2c(Br)nnc2SC(C)(C)C(=O)O)sc1C1CC1 [WX089]
> 20 µM | Cc1cc(-n2c(Br)nnc2SCC(=O)O)sc1C1CC1 [WX078]
> 20 µM | Cn1cc(-c2sc(-n3cnnc3SCC(=O)O)c3c2CCC3)cn1 [WX056]
< 2 µM | CC1(C)CCc2c(C3CC3)sc(-n3c(Br)nnc3SC(C)(C)C(=O)O)c2C1 [WX034]
> 20 µM | CN(C)c1ccc(-c2sc(-n3cnnc3SCC(=O)O)c3c2CCC3)cc1 [WX053]

IC50 | SMILES
< 2 µM | CC1(C)Cc2c(C3CC3)sc(-n3c(Br)nnc3SC3(C(=O)O)CCC3)c2C1 [WX066]
< 2 µM | COc1ccc(-c2sc(-n3c(Br)nnc3SC(C)C(=O)O)c3c2CCCC3)cc1Br (centres unmarked) [WX012]
2 to 20 µM | CCOC(=O)C(C)(C)Sc1nncn1-c1sc(C(=O)NC(O)CCBr)c2c1CCCC2 (centres unmarked) [WX103]
< 2 µM | CC(Sc1nnc(Br)n1-c1sc(C2CC2)c2c1CCCC2)C(=O)O (centres unmarked) [WX026]
> 20 µM | COc1ccc(-c2sc(-n3c(Br)nnc3SCC(=O)O)c3c2CCC3)cc1 [WX043]
> 20 µM | Cc1cc(-n2c(Br)nnc2SCC(=O)O)sc1-c1ccc(F)cc1 [WX082]
> 20 µM | O=C(O)CSc1nnc(Br)n1-c1sc(-c2ccc(F)cc2)c2c1CCC2 [WX038]
2 to 20 µM | Cc1cc(-n2c(Br)nnc2SCC(=O)O)sc1-c1ccccc1 [WX079]
< 2 µM | CCC(Sc1nnc(Br)n1-c1cc(C)c(C2CC2)s1)C(=O)O (centres unmarked) [WX091]
< 2 µM | C[C@H](Sc1nnc(Br)n1-c1sc(C2CC2)c2c1CCCC2)C(=O)O [WX032]
2 to 20 µM | Cc1cc(-n2c(Br)nnc2SC(C)C(=O)O)sc1-c1ccc(Cl)cc1 (centres unmarked) [WX086]
2 to 20 µM | CC(Sc1nnc(Br)n1-c1sc(-c2ccc(Cl)c(Cl)c2)c2c1CCCC2)C(=O)O (centres unmarked) [WX018]
2 to 20 µM | CC(Sc1nnc(Br)n1-c1sc(-c2ccccc2)c2c1CCCC2)C(=O)O (centres unmarked) [WX004]
2 to 20 µM | O=C(O)CSc1nnc(Br)n1-c1sc(-c2ccc(F)cc2)c2c1CCCC2 [WX006]
< 2 µM | CC(Sc1nnc(Br)n1-c1sc(-c2ccc(C(F)(F)F)cc2)c2c1CCCC2)C(=O)O (centres unmarked) [WX014]
> 20 µM | O=C(O)CSc1nncn1-c1sc(-c2ccc(C(F)(F)F)cc2)c2c1CCC2 [WX051]
2 to 20 µM | COc1ccc(-c2sc(-n3c(Br)nnc3SC(C)(C)C(=O)O)cc2Cl)cc1 [WX071]
2 to 20 µM | O=C(O)C1(Sc2nnc(Br)n2-c2cc(Cl)c(C3CC3)s2)CCC1 [WX068]
> 20 µM | O=C(O)CSc1nnc(Br)n1-c1sc(-c2ccc(C(F)(F)F)cc2)c2c1CCC2 [WX044]
> 20 µM | Cn1cc(-c2sc(-n3c(Br)nnc3SCC(=O)O)c3c2CCC3)cn1 [WX047]
< 2 µM | CC(Sc1nnc(Br)n1-c1sc(C2CC2)c2c1CCC2)C(=O)O (centres unmarked) [WX061]
> 20 µM | O=C(O)CSc1nncn1-c1sc(-c2ccc(Cl)cc2)c2c1CCC2 [WX054]
> 20 µM | Cc1cc(-n2cnnc2SCC(=O)O)sc1-c1ccc(F)cc1 [WX095]
< 2 µM | O=C(O)C1(Sc2nnc(Br)n2-c2sc(C3CC3)c3c2CCC3)CCC1 [WX059]
< 2 µM | O=C(O)CSc1nnc(Br)n1-c1sc(C2CC2)c2c1CCCC2 [WX001]
> 20 µM | Cc1cc(-n2cnnc2SCC(=O)O)sc1-c1ccc(C(C)(C)C)cc1 [WX098]
> 20 µM | O=C(O)CSc1nncn1-c1sc(-c2ccc(Cl)c(Cl)c2)c2c1CCC2 [WX055]

IC50 | SMILES
< 2 µM | Cc1cc(-n2c(Br)nnc2SC(C(=O)O)C(C)C)sc1C1CC1 (centres unmarked) [WX088]
2 to 20 µM | CN(C)c1ccc(-c2sc(-n3cnnc3SC(C)(C)C(=O)O)c3c2CCCC3)cc1Br [WX023]
< 2 µM | C[C@@H](Sc1nnc(Br)n1-c1sc(C2CC2)c2c1CCCC2)C(=O)O [WX031]
2 to 20 µM | Cc1cc(-n2c(Br)nnc2SC(C(=O)O)c2ccccc2)sc1C1CC1 (centres unmarked) [WX090]
< 2 µM | CC(C)(Sc1nnc(Br)n1-c1sc(-c2ccc(F)c(F)c2)c2c1CCCC2)C(=O)O [WX013]
< 2 µM | Cc1cc(-n2c(Br)nnc2SC2(C(=O)O)CCC2)sc1C1CC1 [WX093]
< 2 µM | CCC(C)(Sc1nnc(Br)n1-c1sc(C2CC2)c2c1CCC2)C(=O)O (centres unmarked) [WX063]
< 2 µM | O=C(O)C1(Sc2nnc(Br)n2-c2sc(C3CC3)c3c2CCCC3)CCC1 [WX029]
2 to 20 µM | CC(Sc1nnc(Br)n1-c1cc(Cl)c(C2CC2)s1)C(=O)O (centres unmarked) [WX070]
> 20 µM | COc1ccc(-c2sc(-n3cnnc3SCC(=O)O)cc2C)cc1 [WX096]
> 20 µM | Cc1ccc(-c2sc(-n3c(Br)nnc3SCC(=O)O)c3c2CCC3)cc1 [WX042]
> 20 µM | O=C(O)CSc1nncn1-c1sc(-c2ccc(F)c(F)c2)c2c1CCCC2 [WX021]
> 20 µM | CC(Sc1nnc(Br)n1-c1sc(-c2ccc(S(C)(=O)=O)cc2)c2c1CCCC2)C(=O)O (centres unmarked) [WX015]
< 2 µM | CC(C)C(Sc1nnc(Br)n1-c1sc(C2CC2)c2c1CCCC2)C(=O)O (centres unmarked) [WX028]
> 20 µM | CC(Sc1nncn1-c1sc(C2CC2)c2c1CCCC2)C(=O)O (centres unmarked) [WX036]
> 20 µM | CC(C)(C)c1ccc(-c2sc(-n3cnnc3SCC(=O)O)c3c2CCC3)cc1 [WX048]
> 20 µM | O=C(O)CSc1nnc(Br)n1-c1sc(-c2ccccc2)c2c1CCC2 [WX037]
2 to 20 µM | COc1ccc(-c2sc(-n3c(Br)nnc3SC(C)C(=O)O)c3c2CCCC3)cc1 (centres unmarked) [WX016]
> 20 µM | O=C(O)CSc1nncn1-c1sc(-c2cc(F)cc(F)c2)c2c1CCCC2 [WX022]
> 20 µM | O=C(O)CSc1nnc(Br)n1-c1sc(-c2ccccc2)c2c1OCCO2 [WX099]
< 2 µM | CC(C)(Sc1nnc(Br)n1-c1sc(C2CC2)c2c1CCC(F)(F)C2)C(=O)O [WX033]
2 to 20 µM | O=C(O)CSc1nnc(Br)n1-c1sc(-c2ccccc2)c2c1CCCC2 [WX003]
> 20 µM | O=C(O)CSc1nnc(Br)n1-c1sc(-c2cccc(F)c2)c2c1CCC2 [WX039]
2 to 20 µM | Cc1cc(-n2c(Br)nnc2SC(C)C(=O)O)sc1-c1cccc(F)c1 (centres unmarked) [WX087]
2 to 20 µM | O=C(O)CSc1nnc(Br)n1-c1sc(-c2cccc(F)c2)c2c1CCCC2 [WX007]
2 to 20 µM | CCOC(=O)C(C)(C)Sc1nncn1-c1cc(Br)c(C2CC2)s1 [WX076]
